Values after ≈ are worked out from the molar mass of the structure shown.
Columns and labels:
[1] = system: MDA-MB-231 (mammary gland adenocarcinoma); test: CIMA assay (MTT, 72 h); type: cell-based, human; details: Homo sapiens, MDA-MB-231
Method: Experimental: Stock solutions of the test compounds were prepared in dimethylsulfoxide (DMSO) at 10 mg/ml and stored at −20° C. until used. This preparation ensures that the DMSO content delivered to cells in culture never exceeds 1%. […] Cell proliferation was initially assessed using a standard colorimetric indicator of metabolic activity (CIMA) assay. In this assay, reduction of yellow tetrazolium salt (MTT) to purple formazan by mitochondrial reductases enzymes in viable cells were measured as change in absorbance (λ=500-600).
Seven human cell lines were evaluated: U373 (glioblastoma-astrocytoma), A549 (lung carcinoma), PC3 (prostate adenocarcinoma), THP1 (acute monocytic leukemia), MDA-MB-231 (mammary gland adenocarcinoma), SKOV3 (ovarian adenocarcinoma) and CCD1079Sk (normal skin fibroblast) cells.

[2] = system: tumour cell lines; test: CIMA assay, overall statements on the panel of human cell lines; type: cell-based; details: synthetic compound, 72 h, listed as Synthesized compound II
Method: Prepared extracts were assessed following chronic exposure conditions in which cells were seeded at 2×10^3 cells/well (96 wells-plate) and incubated with test compounds for 72 h. Each compound was evaluated over a range of concentrations (0, 10, 25, 50 or 100 μg/ml). Cell proliferation was initially assessed using a standard colorimetric indicator of metabolic activity (CIMA) assay. In this assay, tetrazole reduction was evaluated as a measure of metabolic function that evaluates mitochondrial activity to determine the extent of cell proliferation within a culture. This assay is based on the reduction of yellow tetrazolium salt to purple formazan by mitochondrial reductases enzyme in viable cells, resulting in a color change that confers a change in absorbance. […]
Crude extract #1 was fractionated into five fractions by C-18 SPE column separation using 15 ml each of 5% methanol (fraction 1), 25% methanol (fraction 2), 50% methanol (fraction 3), 100% methanol (fraction 4) and methanol:dichloromethane (1:1) (fraction 5). Extracts were fractionated and the resulting fractions were evaluated using CIMA assay. […]
Experimental: Stock solutions of the test compounds were prepared in dimethylsulfoxide (DMSO) at 10 mg/ml and stored at −20° C. until used. […] Cell proliferation was initially assessed using a standard colorimetric indicator of metabolic activity (CIMA) assay. […]

[3] = system: MDA-MB-231 human breast cancer cells; test: Murine flank tumor model, pure compound (II): tumor volume and weight; type: in vivo, nude mice (strain J:NU); details: for Tumour weight (mg) ± SEM, extracted at necropsy: intraperitoneal every second day, 4 weeks
Method: Animal studies were conducted under ACC protocol #17-020 and Biosafety protocol #6007077 approved by the Atlantic Veterinary College (AVC, UPEI). Briefly, homozygous outbred nude mice (strain J:NU, 4-weeks old, female) suitable as immunodeficient tumor transplant hosts were procured from a commercial supplier (Jackson Labs, Maine, USA) and acclimatized in a barrier facility (AVC, UPEI) for one week.
To establish the tumors, MDA-MB-231 human breast cancer cells were cultured in vitro and harvested when they were between 60 to 80% confluent. Under anesthetized conditions, each the mouse was injected subcutaneously into both right and left flanks with […] (50:50 in matrigel:DMEM). Tumors development was monitored over a 2-week period. At 2 weeks, tumor established mice (tumor volume ˜20 mm^3) were selected and randomly grouped based on the tumor volume and body weight into ten mice per group as follows: • Group 1: Vehicle control (VC, DMSO 2%, Kholliphor EL 2%) • Group 2: Compound (II), 10 mg/kg body weight • Group 3: Compound (II), 5 mg/kg body weight
Seaweed extract was dissolved in molecular grade DMSO, liquid emulsion was prepared in Kholliphor EL (Sigma, USA) and the final injectable solution was prepared using sterile normal saline.
Mice with established tumors were treated every second day by intraperitoneal injections of test extracts over a 4-week time course. From each group a minimum of 16 tumors were selected for analysis. Tumors were measured weekly using external calipers and volumes established using the modified ellipsoidal formula: tumor volume=0.5 (length×width^2).
In addition, body weights and general animal health were assessed twice weekly during the treatment period. At study termination, mice were sacrificed, and tumors excised from the flank. To evaluate tumor metastasis, an explorative necropsy was conducted in each mouse and the presence and frequency of additional tumors at sites distal to the flank were assessed. Tumor tissue from the flank region was collected and preserved in 10% neutral buffered formalin for histology. Variance within each of the treatment groups to vehicle control was assessed over the four-week time course by one-way ANOVA.

IC50 ([1]; 72 h): 34.3 µg/mL (≈ 110 µM)
Structure (SMILES): CCCCC[C@H](O)[C@H](O)/C=C/[C@@H]1CCCCCCCC(=O)O1 [compound (II), 12R, 13S-Dihydroxy-10-Octadecen-9S-olide]
viability at 1 µg/mL ([1]; MDA-MB, 1 ug/mL, read-out: average cell viability): 101%
viability at 10 µg/mL ([1]; MDA-MB, 10 ug/mL, read-out: average cell viability): 96%
viability at 50 µg/mL ([1]; MDA-MB, 50 ug/mL, read-out: average cell viability): 66%
viability at 100 µg/mL ([1]; MDA-MB, 100 ug/mL, read-out: average cell viability): 20%
antiproliferative activity in tumour cell lines [2]: significantly reduced tumour cell viability and growth in vitro
Tumour volumes ± SEM ([3]; 5 mg/kg b. wt. i.p. every second day, Week 0): 26.94 ± 1.98 mm^3
Tumour volumes ± SEM ([3]; 5 mg/kg b. wt. i.p. every second day, Week 1): 20.83 ± 2.20 mm^3
Tumour volumes ± SEM ([3]; 5 mg/kg b. wt. i.p. every second day, Week 2): 17.38 ± 2.04*¶ mm^3
Tumour volumes ± SEM ([3]; 5 mg/kg b. wt. i.p. every second day, Week 3): 17.23 ± 3.18*¶ mm^3
Tumour volumes ± SEM ([3]; 5 mg/kg b. wt. i.p. every second day, Week 4): 28.01 ± 3.61*¶ mm^3
Tumour weight (mg) ± SEM, extracted at necropsy ([3]; 5 mg/kg b.wt.): 34.64 ± 15.78 mg
Tumour volumes ± SEM ([3]; 10 mg/kg b. wt. i.p. every second day, Week 0): 27.09 ± 1.60 mm^3
Tumour volumes ± SEM ([3]; 10 mg/kg b. wt. i.p. every second day, Week 1): 24.06 ± 1.98 mm^3
Tumour volumes ± SEM ([3]; 10 mg/kg b. wt. i.p. every second day, Week 2): 17.40 ± 2.88*¶ mm^3
Tumour volumes ± SEM ([3]; 10 mg/kg b. wt. i.p. every second day, Week 3): 18.95 ± 5.34*¶ mm^3
Tumour volumes ± SEM ([3]; 10 mg/kg b. wt. i.p. every second day, Week 4): 28.37 ± 9.37*¶ mm^3
Tumour weight (mg) ± SEM, extracted at necropsy ([3]; 10 mg/kg b.wt.): 27.29 ± 8.07 mg
tumor volume at the end of 4-weeks (average) ([3]; 5 and 10 mg/kg, controls rose from 26 to 73 mm^3): ~27 mm^3
change in tumor size during the 4-week study ([3]; both tested concentrations (5 and 10 mg/kg)): no significant change in tumor size
